# Biological target: human MGL from HeLa cells (Homo sapiens (Human), UniProt Q99685)
# Assay: MGL in vitro activity assay ([glycerol-1,3-3H]-oleoyl glycerol hydrolysis, activated carbon filtration)
# Format: biochemical
# Conditions: 300 nM [Glycerol-1,3-3H]-oleoyl glycerol, one hour
# Method in brief: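 Activity measured as tritium in the flow-through after activated carbon filtration of a 1 h reaction containing 300 nM 3H-oleoyl glycerol, compound and HeLa-derived human MGL. Compounds screened at 10 μM; IC50 series start at an empirically chosen highest concentration.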
# Chain of human MGL from HeLa cells (Q99685 whole entry): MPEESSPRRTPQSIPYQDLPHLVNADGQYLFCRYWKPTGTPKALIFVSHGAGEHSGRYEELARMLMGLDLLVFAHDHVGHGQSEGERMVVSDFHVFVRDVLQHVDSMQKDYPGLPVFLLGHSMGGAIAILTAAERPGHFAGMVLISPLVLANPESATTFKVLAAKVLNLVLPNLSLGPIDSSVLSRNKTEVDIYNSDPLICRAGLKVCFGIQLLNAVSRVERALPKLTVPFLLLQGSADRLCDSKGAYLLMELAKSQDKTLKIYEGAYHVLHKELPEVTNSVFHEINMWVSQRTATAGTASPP
row,SMILES,IC50 [nM]
1,"Cc1nc(O[C@H]2CCC3(C[C@@H]2C)CN(C(=O)[C@H]2C[C@@](C)(O)C2)C3)ccc1C(F)(F)F (stereo in doubt) [Example 444, ((1s,3*R)-3-Hydroxy-3-methylcyclobutyl)((6*S,7*S)-6-methyl-7-((6-methyl-5-(trifluoromethyl)pyridin-2-yl)oxy)-2-azaspiro[3.5]nonan-2-yl)methanone]",4.8
2,"Cc1nc(O[C@@H]2CCC3(C[C@H]2C)CN(C(=O)[C@H]2C[C@@](C)(O)C2)C3)ccc1C(F)(F)F (stereo in doubt) [Example 445, ((1s,3*S)-3-Hydroxy-3-methylcyclobutyl)((6*R,7*R)-6-methyl-7-((6-methyl-5-(trifluoromethyl)pyridin-2-yl)oxy)-2-azaspiro[3.5]nonan-2-yl)methanone]",33
3,"Cc1ccc(C2CC3(C2)CN(C(=O)[C@H]2C[C@@](C)(O)C2)C3)cc1C(F)(F)F [Example 6, ((1s,3s)-3-Hydroxy-3-methylcyclobutyl)(6-(4-methyl-3-(trifluoromethyl)phenyl)-2-azaspiro[3.3]heptan-2-yl)methanone]",31
4,"Cc1ccc(C2CC3(C2)CN(C(=O)[C@H]2C[C@@](C)(O)C2)C3)cc1C1CC1 [Example 27, (6-(3-Cyclopropyl-4-methylphenyl)-2-azaspiro[3.3]heptan-2-yl)((1s,3s)-3-hydroxy-3-methylcyclobutyl)methanone]",47
5,"Cc1cc(C2CC2)ccc1C1CC2(C1)CN(C(=O)[C@H]1C[C@@](C)(O)C1)C2 [Example 28, (6-(4-Cyclopropyl-2-methylphenyl)-2-azaspiro[3.3]heptan-2-yl)((1s,3s)-3-hydroxy-3-methylcyclobutyl)methanone]",125
6,"C[C@]1(O)C[C@@H](C(=O)N2CC3(CC(c4ccc5ccncc5c4)C3)C2)C1 [Example 30, ((1s,3s)-3-Hydroxy-3-methylcyclobutyl)(6-(isoquinolin-7-yl)-2-azaspiro[3.3]heptan-2-yl)methanone]",1180
7,"C[C@]1(O)C[C@@H](C(=O)N2CC3(CC(c4ccc5cnccc5c4)C3)C2)C1 [Example 31, ((1s,3s)-3-Hydroxy-3-methylcyclobutyl)(6-(isoquinolin-6-yl)-2-azaspiro[3.3]heptan-2-yl)methanone]",1600
8,"Cc1cc(C2CC3(C2)CN(C(=O)[C@H]2C[C@@](C)(O)C2)C3)ccc1C(F)(F)F [Example 33, ((1s,3s)-3-Hydroxy-3-methylcyclobutyl)(6-(3-methyl-4-(trifluoromethyl)phenyl)-2-azaspiro[3.3]heptan-2-yl)methanone]",246
9,"CC(C)(C)c1cccc(C2CC3(C2)CN(C(=O)[C@H]2C[C@@](C)(O)C2)C3)n1 [Example 34, (6-(6-(tert-Butyl)pyridin-2-yl)-2-azaspiro[3.3]heptan-2-yl)((1s,3s)-3-hydroxy-3-methylcyclobutyl)methanone]",25
10,"C[C@]1(O)C[C@@H](C(=O)N2CC3(CC[C@@H](c4ccc(C5CC5)cc4)C3)C2)C1 [Example 51, ((R)-6-(4-Cyclopropylphenyl)-2-azaspiro[3.4]octan-2-yl)((1s,3S)-3-hydroxy-3-methylcyclobutyl)methanone]",5.5
11,"Cc1cc([C@@H]2CCC3(C2)CN(C(=O)[C@H]2C[C@@](C)(O)C2)C3)ccc1Cl [Example 69, ((R)-6-(4-Chloro-3-methylphenyl)-2-azaspiro[3.4]octan-2-yl)((1s,3S)-3-hydroxy-3-methylcyclobutyl)methanone]",15
12,"COc1cc(F)cc(C2CCC3(CC2)CN(C(=O)[C@H]2C[C@@](C)(O)C2)C3)c1 [Example 104, (7-(3-Fluoro-5-methoxyphenyl)-2-azaspiro[3.5]nonan-2-yl)((1s,3s)-3-hydroxy-3-methylcyclobutyl)methanone]",26
13,"COc1ccc(C2CCC3(CC2)CN(C(=O)[C@H]2C[C@@](C)(O)C2)C3)cc1C [Example 105, ((1s,3s)-3-Hydroxy-3-methylcyclobutyl)(7-(4-methoxy-3-methylphenyl)-2-azaspiro[3.5]nonan-2-yl)methanone]",68
14,"COc1cccc(C2CCC3(CC2)CN(C(=O)[C@H]2C[C@@](C)(O)C2)C3)c1C [Example 106, ((1s,3s)-3-Hydroxy-3-methylcyclobutyl)(7-(3-methoxy-2-methylphenyl)-2-azaspiro[3.5]nonan-2-yl)methanone]",30

# Continued by falling IC50, values first:
row,IC50 [nM],SMILES
1,523,"Cc1cc(C)cc([C@H]2CC[C@]3(CC2)CN(C(=O)[C@H]2C[C@@](C)(O)C2)[C@@H]3C)c1 (stereo in doubt) [Example 349, ((1*R,4r,7*R)-7-(3,5-Dimethylphenyl)-1-methyl-2-azaspiro[3.5]nonan-2-yl)((1s,3*S)-3-hydroxy-3-methylcyclobutyl)methanone]"
2,292,"C[C@]1(O)C[C@@H](C(=O)N2CC3(CC(c4ccc(C5CC5)cc4)C3)C2)C1 [Example 5, (6-(4-Cyclopropylphenyl)-2-azaspiro[3.3]heptan-2-yl)((1s,3s)-3-hydroxy-3-methylcyclobutyl)methanone]"
3,178,"C[C@]1(O)C[C@@H](C(=O)N2CC3(CC(c4cccc(N5CCCC5)c4)C3)C2)C1 [Example 32, ((1s,3s)-3-Hydroxy-3-methylcyclobutyl)(6-(3-(pyrrolidin-1-yl)phenyl)-2-azaspiro[3.3]heptan-2-yl)methanone]"
4,153,"CC(C)c1cccc(C2CC3(CCN(C(=O)[C@H]4C[C@@](C)(O)C4)C3)C2)c1 (stereo partly drawn) [Example 36, ((1s,3s)-3-Hydroxy-3-methylcyclobutyl)(2-(3-isopropylphenyl)-6-azaspiro[3.4]octan-6-yl)methanone]"
5,149,"CC(C)(C)c1ccc(C2CC3(C2)CN(C(=O)[C@H]2C[C@@](C)(O)C2)C3)cc1 [Example 2, (6-(4-(tert-Butyl)phenyl)-2-azaspiro[3.3]heptan-2-yl)((1s,3s)-3-hydroxy-3-methylcyclobutyl)methanone]"
6,128,"CC(C)c1ccc(C2CC3(C2)CN(C(=O)[C@H]2C[C@@](C)(O)C2)C3)cc1 [Example 4, ((1s,3s)-3-Hydroxy-3-methylcyclobutyl)(6-(4-isopropylphenyl)-2-azaspiro[3.3]heptan-2-yl)methanone]"
7,126,"CC(C)(C)c1cccc(C2CC3(CCN(C(=O)[C@H]4C[C@@](C)(O)C4)C3)C2)c1 (stereo partly drawn) [Example 89, (2-(3-(tert-Butyl)phenyl)-6-azaspiro[3.4]octan-6-yl)((1s,3s)-3-hydroxy-3-methylcyclobutyl)methanone]"
8,112,"Cc1c(C2CC3(C2)CN(C(=O)[C@H]2C[C@@](C)(O)C2)C3)cccc1C(F)(F)F [Example 21, ((1s,3s)-3-Hydroxy-3-methylcyclobutyl)(6-(2-methyl-3-(trifluoromethyl)phenyl)-2-azaspiro[3.3]heptan-2-yl)methanone]"
9,99,"COc1cc(C2CCC3(CC2)CN(C(=O)[C@H]2C[C@@](C)(O)C2)C3)ccc1F [Example 103, (7-(4-Fluoro-3-methoxyphenyl)-2-azaspiro[3.5]nonan-2-yl)((1s,3s)-3-hydroxy-3-methylcyclobutyl)methanone]"
10,77,"Cc1cc(C)cc([C@H]2CC[C@@]3(CC2)CN(C(=O)[C@H]2C[C@@](C)(O)C2)[C@@H]3C)c1 (stereo in doubt) [Example 351, ((1*R,4s,7*S)-7-(3,5-Dimethylphenyl)-1-methyl-2-azaspiro[3.5]nonan-2-yl)((1s,3*S)-3-hydroxy-3-methylcyclobutyl)methanone]"
11,58,"C[C@]1(O)C[C@@H](C(=O)N2CC3(CCC(c4ccccc4)CC3)C2)C1 [Example 37, ((1s,3s)-3-Hydroxy-3-methylcyclobutyl)(7-phenyl-2-azaspiro[3.5]nonan-2-yl)methanone]"
12,45,"Cc1ccc(C2CC3(C2)CN(C(=O)[C@H]2C[C@@](C)(O)C2)C3)cc1OC(F)(F)F [Example 23, ((1s,3s)-3-Hydroxy-3-methylcyclobutyl)(6-(4-methyl-3-(trifluoromethoxy)phenyl)-2-azaspiro[3.3]heptan-2-yl)methanone]"
13,37,"C[C@]1(O)C[C@@H](C(=O)N2CC3(CC(c4cccc(C5CC5)c4)C3)C2)C1 [Example 20, (6-(3-Cyclopropylphenyl)-2-azaspiro[3.3]heptan-2-yl)((1s,3s)-3-hydroxy-3-methylcyclobutyl)methanone]"
14,34,"Cc1cc(C)cc([C@H]2CC[C@@]3(CC2)CN(C(=O)[C@H]2C[C@@](C)(O)C2)[C@H]3C)c1 (stereo in doubt) [Example 350, ((1*S,4s,7*R)-7-(3,5-Dimethylphenyl)-1-methyl-2-azaspiro[3.5]nonan-2-yl)((1s,3*R)-3-hydroxy-3-methylcyclobutyl)methanone]"
15,24,"CC(C)c1cccc(C2CC3(C2)CN(C(=O)[C@H]2C[C@@](C)(O)C2)C3)c1 [Example 3, ((1s,3s)-3-Hydroxy-3-methylcyclobutyl)(6-(3-isopropylphenyl)-2-azaspiro[3.3]heptan-2-yl)methanone]"
16,17,"Cc1cc([C@H]2CCC3(C2)CN(C(=O)[C@H]2C[C@@](C)(O)C2)C3)ccc1Cl [Example 70, ((S)-6-(4-Chloro-3-methylphenyl)-2-azaspiro[3.4]octan-2-yl)((1s,3R)-3-hydroxy-3-methylcyclobutyl)methanone]"
17,12,"Cc1ccc(C2CCC3(CC2)CN(C(=O)[C@H]2C[C@@](C)(O)C2)C3)cc1Cl [Example 22, (7-(3-Chloro-4-methylphenyl)-2-azaspiro[3.5]nonan-2-yl)((1s,3s)-3-hydroxy-3-methylcyclobutyl)methanone]"
18,9.9,"CC(C)(C)c1cccc(C2CC3(C2)CN(C(=O)[C@H]2C[C@@](C)(O)C2)C3)c1 [Example 1, (6-(3-(tert-Butyl)phenyl)-2-azaspiro[3.3]heptan-2-yl)((1s,3s)-3-hydroxy-3-methylcyclobutyl)methanone]"
19,9.7,"C[C@]1(O)C[C@@H](C(=O)N2CC3(CC[C@H](c4ccc(C5CC5)cc4)C3)C2)C1 [Example 50, ((S)-6-(4-Cyclopropylphenyl)-2-azaspiro[3.4]octan-2-yl)((1s,3R)-3-hydroxy-3-methylcyclobutyl)methanone]"
